Source: US8153385B2, “Target protein and target gene in drug designing and screening method” (Reverse Proteomics Research Institute Co., Ltd., priority 2004, dated 2012)

Target: T1, FLJ13397 clone-derived protein (CARP) (Homo sapiens, UniProt Q9H8M7)
T1 construct: A human full-length cDNA clone was expressed as a protein with an N-terminal His tag; His tag (pDEST17 Gateway vector) (N); made in house; host or cells: Escherichia coli BL21star(DE3)pLysS
T1 sequence (Q9H8M7 1-445): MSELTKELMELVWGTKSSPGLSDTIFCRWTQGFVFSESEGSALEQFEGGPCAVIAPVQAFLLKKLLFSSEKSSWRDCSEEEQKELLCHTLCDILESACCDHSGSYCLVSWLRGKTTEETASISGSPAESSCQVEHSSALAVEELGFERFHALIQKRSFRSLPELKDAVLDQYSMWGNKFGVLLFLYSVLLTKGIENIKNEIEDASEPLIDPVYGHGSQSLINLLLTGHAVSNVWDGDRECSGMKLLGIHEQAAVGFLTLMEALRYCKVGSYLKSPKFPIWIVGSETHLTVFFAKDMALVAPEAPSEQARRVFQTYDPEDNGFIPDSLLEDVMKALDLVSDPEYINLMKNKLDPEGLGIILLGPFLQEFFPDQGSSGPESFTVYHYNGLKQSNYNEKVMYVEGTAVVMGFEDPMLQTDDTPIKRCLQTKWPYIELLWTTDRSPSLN
Assay: SEC/MS (size exclusion chromatography / mass analysis) interaction analysis between FLJ13397 clone-derived protein and compounds
Assay type: binding

[1] = compound 1 μM, protein 0 μM (protein-free reference)
[2] = compound 1 μM, protein 23.75 μM
[3] = compound 10 μM, protein 0 μM (protein-free reference)
[4] = compound 10 μM, protein 23.75 μM
[5] = compound 10 μM, protein 47.5 μM
[6] = compound 100 μM, protein 0 μM (protein-free reference)
[7] = compound 100 μM, protein 23.75 μM
[8] = compound 100 μM, protein 47.5 μM
[9] = compound 250 μM, protein 0 μM (protein-free reference)
[10] = compound 250 μM, protein 23.75 μM
[11] = compound 250 μM, protein 47.5 μM

Row | SMILES | spectrum intensity of the extracted mass range (compound in SEC spin column filtrate) [1] | spectrum intensity of the extracted mass range (compound in SEC spin column filtrate) [2] | spectrum intensity of the extracted mass range (compound in SEC spin column filtrate) (compound 1 μM, protein 47.5 μM) | spectrum intensity of the extracted mass range (compound in SEC spin column filtrate) [3] | spectrum intensity of the extracted mass range (compound in SEC spin column filtrate) [4] | spectrum intensity of the extracted mass range (compound in SEC spin column filtrate) [5] | spectrum intensity of the extracted mass range (compound in SEC spin column filtrate) [6] | spectrum intensity of the extracted mass range (compound in SEC spin column filtrate) [7] | spectrum intensity of the extracted mass range (compound in SEC spin column filtrate) [8] | spectrum intensity of the extracted mass range (compound in SEC spin column filtrate) [9] | spectrum intensity of the extracted mass range (compound in SEC spin column filtrate) [10] | spectrum intensity of the extracted mass range (compound in SEC spin column filtrate) [11]
1 | c1ccc2[nH]c(-c3cscn3)nc2c1 [Thiabendazole] | 61442947 | 42216896 | 47595391 | 21903023 | 45510612 | 41434122 | 60344905 | 64811390 | 63585895 | 40530147 | 93902905 | 125101370
2 | c1ccc2[nH]cnc2c1 [Benzimidazole] | 2459590 | 1627696 | 1328076 | 2937731 | 1321952 | 2620286 | 3881633 | 4636579 | 4337586 | 9545633 | 10439034 | 13446649
